Laboratory results from paper PMC11050599, “Novel Tetracyclic Azaphenothiazines with the Quinoline Ring as New Anticancer and Antibacterial Derivatives of Chlorpromazine” (International Journal of Molecular Sciences, 2024).
Converted amounts (≈) assume the structure as drawn. Where two headings read alike, the source gives them in different places.

Legend:
A549 (lung cancer) = experiment: MTT assay, A549 cells; format: cell-based, human; settings: for IC50: Homo sapiens, A549, MTT, 72 h, mean SD, read-out: IC50 A549
Experimental: (§1) The human cell lines, such as A549 (lung cancer), MDA-MB-231 (breast cancer), MiaPaca-2 (pancreatic cancer), PC3 (metastatic prostate cancer), HCT-116 (colon carcinoma), and HaCaT (immortalized keratinocytes), were sourced from the American Type Culture Collection (ATCC) in Rockville, USA. Culturing conditions varied as follows: HCT116 cells were cultured in MEM (ThermoSci, Waltham, MA, USA), A549, MDA-MB-231, MiaPaca, HaCaT cells in DMEM High Glucose and PC3 cells were cultured in RPMI (Biowest SAS, Nuaillé, France). The growth medium consisted of 10% fetal bovine serum (FBS, Sigma-Aldrich, St. Louis, MO, USA), 20 mM HEPES (Biowest, Nuaillé, France), and antibiotics (100 U/mL of penicillin and 100 μg/mL of streptomycin) from Gibco, Grand Island, NY, USA. […] These compounds were added to 96-well plates containing study cells (1 × 10^4 cells per well) and incubated for 72 h. […] Cell absorbance results were incorporated into the formula for calculating the relative MTT level (%), enabling the assessment of cell viability following exposure to the test compounds. The cell viability percentage represents the MTT reduction in cells treated with the test compounds compared to the control sample, where only the medium was added to the cells.

[1] = tested on: MDA-MB-231 (breast cancer); experiment: MTT assay, MDA-MB-231 cells; format: cell-based, human; settings: for IC50: Homo sapiens, MDA-MB-231, MTT, 72 h, MDA-MB231, read-out: IC50 MDA; for SI MDA: SI = IC50 for normal cell line (HaCaT)/IC50 cancer cell line
Experimental: as §1

[2] = tested on: HaCaT (immortalized human keratinocytes); experiment: MTT assay, HaCaT normal cells; format: cell-based; settings: Homo sapiens, HaCaT, MTT, 72 h, normal cells
Experimental: as §1

[3] = tested on: MiaPaCa-2 (pancreas cancer); experiment: MTT assay, MiaPaCa-2 cells; format: cell-based, human; settings: for IC50: Homo sapiens, MIA PaCa-2, MTT, 72 h, read-out: IC50 MiaPaCa-2; for SI MiaPaCa-2: SI = IC50 for normal cell line (HaCaT)/IC50 cancer cell line
Experimental: as §1

PC3 (prostate cancer) = experiment: MTT assay, PC3 cells; format: cell-based, human; settings: for IC50: Homo sapiens, PC-3, MTT, 72 h, read-out: IC50 PC3; for SI PC3: SI = IC50 for normal cell line (HaCaT)/IC50 cancer cell line
Experimental: as §1

HCT116 (colon cancer) = experiment: MTT assay, HCT116 cells; format: cell-based, human; settings: for IC50: Homo sapiens, HCT-116, MTT, 72 h, read-out: IC50 HCT116; for SI HCT116: SI = IC50 for normal cell line (HaCaT)/IC50 cancer cell line
Experimental: as §1

E. coli ATCC 25922 = experiment: MIC broth microdilution; format: cell-based; settings: Escherichia coli, ATCC25922; 19 h, 35 °C; read-out: MIC E. coli ATCC 25922
Excerpt: (§2) To evaluate the antibacterial effectiveness of chloroquinobenzothiazine derivatives, various bacterial strains from international microbe collections such as the American Type Culture Collection (ATCC) and the National Collection of Type Culture (NCTC) were examined, alongside a panel of clinical rods. This included two Gram-negative organisms, E. coli ATCC 25922 and P. aeruginosa ATCC 15442, and a series of six Gram-positive strains: S. aureus NCTC 4163; S. aureus ATCC 29213, 25923, and 6538; and S. epidermidis ATCC 12228 and 35984. […] The MIC was determined using the two-fold serial broth microdilution method in 96-well microtitration plates containing Mueller-Hinton II broth medium (Becton Dickinson, Franklin Lakes, NJ, USA). The final inoculum for all tested bacteria was adjusted to […] (colony-forming units per milliliter). The stock solution of the tested compounds was prepared in dimethyl sulfoxide (DMSO) and diluted to a maximum of 1% solvent content with a sterile medium.

P. aeruginosa ATCC 15442 = experiment: MIC broth microdilution; format: cell-based; settings: Pseudomonas aeruginosa, ATCC15442; 19 h, 35 °C; read-out: MIC P. aeruginosa ATCC 15442
Excerpt: as §2

S. aureus ATCC 25923 = experiment: MIC broth microdilution; format: cell-based; settings: Staphylococcus aureus, ATCC25923; 19 h, 35 °C; read-out: MIC S. aureus ATCC 25923
Excerpt: as §2

S. aureus ATCC 29213 = experiment: MIC broth microdilution; format: cell-based; settings: Staphylococcus aureus, ATCC29213; 19 h, 35 °C; read-out: MIC S. aureus ATCC 29213
Excerpt: as §2

S. aureus ATCC 6538 = experiment: MIC broth microdilution; format: cell-based; settings: Staphylococcus aureus, ATCC6538; 19 h, 35 °C; read-out: MIC S. aureus ATCC 6538
Excerpt: as §2

S. aureus NCTC 4163 = experiment: MIC broth microdilution; format: cell-based; settings: Staphylococcus aureus, NCTC4163; 19 h, 35 °C; read-out: MIC S. aureus NCTC 4163
Excerpt: as §2

[4] = tested on: S. epidermidis ATCC 12228; experiment: MIC broth microdilution; format: cell-based; settings: Staphylococcus epidermidis, ATCC12228; 19 h, 35 °C; read-out: MIC S. epidermidis ATCC 12228
Excerpt: as §2

[5] = tested on: S. epidermidis ATCC 35984; experiment: MIC broth microdilution; format: cell-based; settings: Staphylococcus epidermidis, ATCC35984; 19 h, 35 °C; read-out: MIC S. epidermidis ATCC 35984
Excerpt: as §2

A549 cells = experiment: Annexin V-FITC/PI apoptosis flow cytometry, A549; format: cell-based, human; settings: for cells in late apoptosis or necrosis, A549: compound at IC50, 72 h; for A549: Alive / A549: Early Apoptotic / A549: Necrotic / A549: Necrotic/Late Apoptotic: representative dot plot, Figure 4A, IC50, 72 h
Experimental: (§3) To analyze the number of cells in early apoptosis, late apoptosis, or necrosis, A549, MiaPaca-2, and HCT-116 cell lines were cultured in 6-well plates with a seeding density of 1 × 10^5 cells per well. These cells were then treated with selected compounds (4, 5, and 8) at their respective IC50 concentrations and incubated for 72 h. Subsequently, a commercially available kit, the FITC: Annexin V Apoptosis Detection Kit I from BD Biosciences Pharmingen in San Jose, CA, USA, was utilized to assess apoptosis. After 72 h the cells were harvested, washed, and labeled with Annexin V-FITC and propidium iodide (PI) following the manufacturer’s protocol (Becton Dickinson), as previously described. The stained cells were analyzed by flow cytometry. The cells were identified as early apoptotic (Annexin V+/PI−) or late apoptotic/necrotic (Annexin V+/PI+).

HCT116 cells [6] = experiment: Annexin V-FITC/PI apoptosis flow cytometry, HCT116; format: cell-based, human; settings: for HCT-116: Alive / HCT-116: Early Apoptotic / HCT-116: Necrotic / HCT-116: Necrotic/Late Apoptotic: representative dot plot, Figure 4C, IC50, 72 h
Experimental: as §3

HCT116 cells [7] = experiment: Cell cycle analysis by flow cytometry, HCT116; format: cell-based, human; settings: IC50, 24 h, compared to the control
Experimental: In brief, cells were seeded at a density of 1 × 10^5 cells/well on a six-well plate and allowed to adhere for 24 h. […] Both population cells (the attached and detached) were collected and centrifuged at 400× g for 5 min at 4 °C. After centrifugation, the cells were washed twice with 0.9% NaCl and subsequently fixed in 500 μL of 70 % cold ethanol overnight.
Before analysis, the fixed cells underwent another centrifugation step at 850× g for 5 min at 4 °C and were washed with PBS. Following the washes, the cells were incubated with 50 μL of RNase (100 μg/mL) and 200 μL of propidium iodide (PI) (50 μg/mL) at 37 °C for 30 min in the dark. Finally, 100 μL of PBS was added to each sample. Flow cytometry (Becton Dickinson FACS Verse, Franklin Lakes, NJ, USA) was then used to analyze the cell cycle distribution, identifying cells in various stages including sub-G1, G0/G1, S, and G2/M phases. Each assay was performed in quadruplicate.

Row | Structure (SMILES) | IC50 (A549 (lung cancer)) | IC50 [1] | SI MDA [1] | IC50 ([2]; read-out: IC50 HaCaT (Table 3)) | IC50 [3] | SI MiaPaCa-2 [3] | IC50 (PC3 (prostate cancer)) | SI PC3 (PC3 (prostate cancer)) | IC50 (HCT116 (colon cancer)) | MIC (E. coli ATCC 25922) | MIC (P. aeruginosa ATCC 15442) | MIC (S. aureus ATCC 25923) | MIC (S. aureus ATCC 29213) | MIC (S. aureus ATCC 6538) | MIC (S. aureus NCTC 4163) | MIC [4] | MIC [5] | cells in late apoptosis or necrosis, A549 (A549 cells) | A549: Alive (A549 cells) | A549: Early Apoptotic (A549 cells) | other results
1 | CN(C)CCCN1c2cc(Cl)ccc2Sc2cc3ccccc3nc21 [Compound 8, 3-(8-Chloroquino[3,2-b]benzo[1,4]thiazin-6-yl)-N,N-dimethylpropan-1-amine] | 8.2 ± 3.6 µM | 52.1 ± 2.7 µM | 1.2 | 62.3 ± 2.5 µM | 40.2 ± 0.7 µM | 1.6 | 52.1 ± 7.1 µM | 1.2 | 1.6 ± 0.8 µM | 64 µg/mL (≈ 173 µM) | 256 µg/mL (≈ 692 µM) | 8 µg/mL (≈ 21.6 µM) | 8 µg/mL (≈ 21.6 µM) | 8 µg/mL (≈ 21.6 µM) | 8 µg/mL (≈ 21.6 µM) | 8 µg/mL (≈ 21.6 µM) | 8 µg/mL (≈ 21.6 µM) | 42% | 62.41% | 2.39% | A549: Necrotic (A549 cells): 24.93%; A549: Necrotic/Late Apoptotic (A549 cells): 10.27%; cells in early apoptosis, HCT116 (HCT116 cells [6]; compound at IC50, 72 h): 9.09 ± 0.5%; cells in late apoptosis/necrosis, HCT116 (HCT116 cells [6]; compound at IC50, 72 h): 8.55 ± 0.33%; HCT-116: Alive (HCT116 cells [6]): 78.75%; HCT-116: Early Apoptotic (HCT116 cells [6]): 9.09%; HCT-116: Necrotic (HCT116 cells [6]): 3.61%; HCT-116: Necrotic/Late Apoptotic (HCT116 cells [6]): 8.55%; increase in the cell amount at the sub-G1 phase, HCT116 (HCT116 cells [7]): 5 fold; increase in the number of cells in the G2/M phase, HCT116 (HCT116 cells [7]): approximately 1.3 fold; increase in the number of cells in the S phase, HCT116 (HCT116 cells [7]): approximately 2 fold
2 | CS(=O)(=O)NCCCCN1c2cc(Cl)ccc2Sc2cc3ccccc3nc21 [Compound 23, N-(4-(8-Chloroquino[3,2-b]benzo[1,4]thiazin-6-yl)butyl)methanesulfonamide] | 30.5 ± 8.3 µM | > 100 µM | – | > 100 µM | 98.4 ± 5.6 µM | 1.0 | > 100 µM | 1.0 | 0.7 ± 0.08 µM | > 256 µg/mL | > 256 µg/mL | > 256 µg/mL | > 256 µg/mL | > 256 µg/mL | > 256 µg/mL | > 256 µg/mL | > 256 µg/mL | – | – | – | SI A549 (A549 (lung cancer); SI = IC50 for normal cell line (HaCaT)/IC50 cancer cell line): 3.3; SI HCT116 (HCT116 (colon cancer)): 143; cells in late apoptosis/necrosis, HCT116 (HCT116 cells [6]; compound at IC50, 72 h): 93%; HCT-116: Alive (HCT116 cells [6]): 3.42%; HCT-116: Early Apoptotic (HCT116 cells [6]): 0.76%; HCT-116: Necrotic (HCT116 cells [6]): 3.85%; HCT-116: Necrotic/Late Apoptotic (HCT116 cells [6]): 91.97%; increase in the cell amount at the sub-G1 phase, HCT116 (HCT116 cells [7]): 11 fold; increase in the number of cells in the G2/M phase, HCT116 (HCT116 cells [7]): approximately 1.3 fold; increase in the number of cells in the S phase, HCT116 (HCT116 cells [7]): approximately 2 fold
3 | Cc1ccc(S(=O)(=O)NCCCCN2c3cc(Cl)ccc3Sc3cc4ccccc4nc32)cc1 [Compound 25, N-(4-(8-Chloroquino[3,2-b]benzo[1,4]thiazin-6-yl)butyl)-4-methylbenzenesulfonamide] | 9.45 ± 1.3 µM | > 100 µM | 1.0 | < 100 µM | > 100 µM | 1.0 | 48.6 ± 4.7 µM | 2.0 | > 100 µM | > 256 µg/mL | > 256 µg/mL | > 256 µg/mL | > 256 µg/mL | > 256 µg/mL | > 256 µg/mL | > 256 µg/mL | > 256 µg/mL | 82% | 16.32% | 0.60% | IC50 ([2]; read-out: IC50 HaCaT (Table 4)): > 100 µM; SI HCT116 (HCT116 (colon cancer)): 1.0; A549: Necrotic (A549 cells): 32.75%; A549: Necrotic/Late Apoptotic (A549 cells): 50.34%
